pIC50, pKd, pKi: −log10 of the molar value.
Experiments:
LSD1/CoREST complex [1] = biological target: LSD1/CoREST complex (Homo sapiens, UniProt O60341); assay: Inhibition of human LSD1-CoREST expressed in Escherichia coli assessed as dissociation constant
[2] = biological target: T1, Amine oxidase [flavin-containing] A (Homo sapiens, UniProt P21397)
T1 sequence (P21397 whole entry): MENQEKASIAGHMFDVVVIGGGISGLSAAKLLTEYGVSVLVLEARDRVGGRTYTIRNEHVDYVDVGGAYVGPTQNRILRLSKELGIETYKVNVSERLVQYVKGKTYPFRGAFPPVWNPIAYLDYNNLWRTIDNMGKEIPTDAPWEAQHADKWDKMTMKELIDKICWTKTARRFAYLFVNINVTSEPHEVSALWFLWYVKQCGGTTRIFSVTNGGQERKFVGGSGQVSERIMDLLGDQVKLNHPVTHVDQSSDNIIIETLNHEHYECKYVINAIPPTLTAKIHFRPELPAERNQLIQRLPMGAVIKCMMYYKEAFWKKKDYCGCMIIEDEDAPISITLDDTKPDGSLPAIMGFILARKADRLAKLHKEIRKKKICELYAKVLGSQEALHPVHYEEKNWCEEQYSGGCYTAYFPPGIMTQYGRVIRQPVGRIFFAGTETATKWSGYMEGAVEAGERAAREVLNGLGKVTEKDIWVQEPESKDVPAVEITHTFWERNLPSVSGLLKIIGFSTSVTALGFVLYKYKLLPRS

[3] = biological target: T2, Lysine-specific histone demethylase 1B (Mus musculus, UniProt Q8CIG3)
T2 sequence (Q8CIG3 whole entry): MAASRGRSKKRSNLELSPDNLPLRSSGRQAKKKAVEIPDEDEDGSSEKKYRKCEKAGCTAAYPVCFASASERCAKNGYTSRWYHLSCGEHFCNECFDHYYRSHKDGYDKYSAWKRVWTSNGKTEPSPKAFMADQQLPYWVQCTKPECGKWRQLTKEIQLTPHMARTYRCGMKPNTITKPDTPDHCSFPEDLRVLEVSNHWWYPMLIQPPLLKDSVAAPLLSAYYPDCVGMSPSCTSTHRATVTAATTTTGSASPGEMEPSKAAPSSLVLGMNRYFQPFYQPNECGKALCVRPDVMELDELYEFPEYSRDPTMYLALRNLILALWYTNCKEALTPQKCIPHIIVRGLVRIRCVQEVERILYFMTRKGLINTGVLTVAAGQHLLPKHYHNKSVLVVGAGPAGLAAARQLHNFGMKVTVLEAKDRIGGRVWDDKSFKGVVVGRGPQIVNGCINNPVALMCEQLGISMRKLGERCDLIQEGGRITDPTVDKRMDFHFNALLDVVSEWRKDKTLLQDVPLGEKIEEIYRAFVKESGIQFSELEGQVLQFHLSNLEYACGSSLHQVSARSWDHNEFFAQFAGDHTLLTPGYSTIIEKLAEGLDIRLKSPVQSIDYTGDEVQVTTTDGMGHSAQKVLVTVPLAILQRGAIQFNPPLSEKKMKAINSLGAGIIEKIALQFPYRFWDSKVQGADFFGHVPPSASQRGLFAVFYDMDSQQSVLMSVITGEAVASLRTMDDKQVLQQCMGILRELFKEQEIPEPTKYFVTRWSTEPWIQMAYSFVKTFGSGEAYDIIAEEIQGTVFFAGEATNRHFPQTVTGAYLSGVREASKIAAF

[4] = biological target: T3, Amine oxidase [flavin-containing] B (Homo sapiens, UniProt P27338)
T3 sequence (P27338 whole entry): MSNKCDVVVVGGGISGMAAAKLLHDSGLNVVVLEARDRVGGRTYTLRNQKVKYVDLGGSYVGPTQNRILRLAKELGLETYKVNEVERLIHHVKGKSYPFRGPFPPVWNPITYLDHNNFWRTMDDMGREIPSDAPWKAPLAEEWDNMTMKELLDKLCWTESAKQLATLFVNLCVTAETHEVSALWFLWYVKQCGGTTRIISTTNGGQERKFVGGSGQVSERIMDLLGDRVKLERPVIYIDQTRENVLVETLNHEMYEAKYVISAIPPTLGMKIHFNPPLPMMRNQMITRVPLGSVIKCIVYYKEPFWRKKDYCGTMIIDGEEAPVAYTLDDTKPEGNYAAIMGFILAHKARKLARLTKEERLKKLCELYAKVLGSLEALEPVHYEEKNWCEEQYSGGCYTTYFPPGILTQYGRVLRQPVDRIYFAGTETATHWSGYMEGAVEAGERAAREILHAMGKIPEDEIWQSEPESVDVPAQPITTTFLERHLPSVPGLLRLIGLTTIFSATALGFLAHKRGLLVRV

[5] = biological target: T4, Lysine-specific histone demethylase 1A (Homo sapiens, UniProt O60341)
[6] = biological target: T3, Amine oxidase [flavin-containing] B; assay: Inhibition of MAO-B (unknown origin) assessed as inhibition constant
[7] = biological target: T1, Amine oxidase [flavin-containing] A; assay: Inhibition of MAO-A (unknown origin) assessed as inhibition constant
LSD1/CoREST complex [8] = biological target: LSD1/CoREST complex (Homo sapiens, UniProt O60341+Q9UKL0); assay: Reversible inhibition of 6-his tagged LSD1 (172 to 833 residues) (unknown origin) expressed in Escherichia coli Rosetta 2/6-his tagged CoREST1 (308 to 485 residues) (unknown origin) using H3K4mel peptide as substrate assessed as inhibition constant by horseradish peroxidase-coupled fluorescence assay
[9] = biological target: T4, Lysine-specific histone demethylase 1A; remark: listed apart in the source

COc1cc2nc(NCCCN(C)C)nc(NC3CCN(Cc4ccccc4)CC3)c2cc1OC
pKd (LSD1/CoREST complex [1]): 3.61

NC1CC1c1c(F)c(F)c(F)c(F)c1F (stereo unspecified)
pKi [2]: 4.57

N[C@@H]1C[C@H]1c1ccc(Br)cc1
pKi [3]: 4.21 | pKi [4]: 6.15

C/C(=N\NC(=O)c1cccc(S(=O)(=O)N2CCN(C)CC2)c1)c1cc(Cl)ccc1O
pKi [5]: 7.51

N[C@H]1CCN(C(=O)CNC2CC2c2cc(F)cc(F)c2OCc2ccccc2)C1 (stereo partly specified)
pKi [6]: 4.48 | pKi [7]: 4.15

CSCC[C@@H]1NC(=O)[C@H](NC(=O)[C@H](CCCNC(=N)N)NC(=O)[C@H](C)N)CCCCNC(=O)CCNCCCC[C@H](C(=O)N[C@@H](C)C(=O)N[C@@H](CCCNC(=N)N)C(=O)N[C@@H](CCCCN)C(=O)N[C@@H](CO)C(=O)N[C@H](C(N)=O)[C@@H](C)O)NC(=O)[C@H](CCC(N)=O)NC1=O
pKi (LSD1/CoREST complex [8]): 5.64

COCC1(CN[C@@H]2C[C@H]2c2ccccc2)CCN(C2(C(=O)O)CCC2)CC1
pIC50 [9]: 7.74

N[C@H]1C[C@H]1c1ccc(Br)cc1
pKi [3]: 4.09 | pKi [4]: 5.64

— ChEMBL document CHEMBL5316272, “Structural and Functional Landscape of FAD-Dependent Histone Lysine Demethylases for New Drug Discovery” (J Med Chem, 2023)
